Test results reported in patent US11471414B2, “Compositions and methods for the treatment and prophylaxis of surgical site infections” (Polypid Ltd., priority 2014, dated 2022).

Test system: Staphylococcus aureus (ATCC 29213) preformed biofilm
Test: MBEC Physiology and Genetics Assay, eradication of an established biofilm
Assay type: cell-based
Protocol: The effectiveness of tri-calcium phosphate granules coated with a matrix composition according to embodiments of the invention in eradicating established biofilm was measured using the MBEC™ (Minimum Biofilm Eradication Concentration) Physiology and Genetics Assay.
MBEC™ Test Method Overview: MBEC™ test method specifies the operational parameters required to grow and treat different bacterial biofilms in a high throughput screening assay. The assay device consists of a plastic lid with ninety-six (96) pegs and a corresponding receiver plate with ninety-six (96) individual wells that have a maximum 200 μL working volume. Biofilm is established on the pegs in a batch culture based model (i.e., no flow of nutrients into or out of an individual well) with gentle mixing. The established biofilm is transferred to a new receiver plate for disinfectant efficacy testing.
Test Organisms: Staphylococcus aureus (an osteomyelitis-related strains); source: ATCC
29213; Dilution/Challenge Media: 1,000×TSB+10% human serum 24 hrs; Growth Media/agar: Tryptic Soy Broth/Tryptic Soy agar for 24 hrs Aerobic cond.
TEST METHOD overview: The experimental process for high-throughput antimicrobial susceptibility testing using the hydroxyapatite coated MBEC™ P&G assay. This standard protocol was broken into a series of small steps, each of which is detailed in the sections below.
Using a cryogenic stock (at −70° C.), a first sub-culture of Staphylococcus aureus was streaked out on OSA (organism specific agar). The plates were incubated at appropriate growth conditions for 20±2.0 hours and further stored at 4° C.
A second sub-culture taken from the first sub-culture was streaked out on OSA. The plates were incubated at appropriate growth conditions for 20±2.0 hours. An isolated colony from the second sub-culture was aseptically removed from the OSA plate and inoculated into 50 mL of sterile bacterial liquid growth broth, followed by incubation appropriate growth conditions for 20±2.0 hours (at 150 rpm).
The inoculum was adjusted to an approximate cell density of 10^6 CFU/mL.
150 μL of the remaining diluted organism were placed in each of the corresponding wells of an MBEC™ P&G device except the sterility controls (Table 5). The device was placed on an orbital shaker (110 RPM) in a humidified incubator at 37±1° C.
The biofilm formed on the lid of the MBEC device was rinsed by dipping the lid into saline (˜30 seconds) to remove planktonic cells. The lid was then put on top of the challenge plate and incubated on a rotary shaker at 110 rpm at 35±2° C. for 24±2 hours.
After incubation (specified above), planktonic cells were rinsed off the biofilm by dipping the lid into saline (˜20-30 seconds). The lid was then transferred to a neutralizer/recovery plate and put in a sonicator (˜30 minutes) to dislodge surviving biofilm.
Following sonication, 100 μL from each well of the MBEC™ plate, were put into the first 12 empty wells of the first row of a 96 well-micro titer plate and were further diluted by 10 fold down each of the 8 rows (10^0-10^7 dilution). 5 μL from each well were then used for spotting prepared OSA plates. The agar plates were incubated at 37±1° C. and counted after approximately 24-48 hours of incubation. The arithmetic mean of the number of colonies counted on the plates was calculated.
100 μL of the sterile neutralizer was added to each well of the recovery plate to top up the volume back to 200 μL. The refilled plate is incubated at 35±2° C. for 24±2 hours.
Comparator MBEC results were determined following the 24±2 hour incubation using the plate reader.
The log density for one peg was calculated as follows: LOG10(CFU/peg)=LOG10[(X/B)(D)] where: X=mean CFU; B=volume plated (0.02 mL) and D=dilution.
The overall biofilm accumulation was determined by calculating the mean of the log densities calculated.
LOG10 reduction for each dilution was calculated as follows: LOG10 Reduction=Mean LOG10 Growth Control−Mean LOG10 Test Sample.

Q: Which “Log Reduction (Log R) vs. GC (growth control)” value (shortened to “Log Reduction (Log R) vs. GC”) (D 0.5) does the source give for Gentamicin here?
A: Its value is 1.11.

Q: What about the “Average Log10 CFU/peg recoveries” value (D 0.5 (μg)) of the same substance?
A: Its value is 3.48 Log10 CFU/peg.

Q: What about the “Log Reduction (Log R) vs. GC” value (D 1.0) of the same substance?
A: The value was 1.38.

Q: And the “Average Log10 CFU/peg recoveries” value (D 1.0 (μg))?
A: Its value is 3.21 Log10 CFU/peg.

Q: And the “Log Reduction (Log R) vs. GC” value (D 2.0)?
A: The value was 2.90.

Q: What about the “Average Log10 CFU/peg recoveries” value (D 2.0 (μg)) of the same substance?
A: Its value is 1.69 Log10 CFU/peg.

Q: And the “Log Reduction (Log R) vs. GC” value (D 4.0)?
A: The value was 3.29.

Q: What about the “Average Log10 CFU/peg recoveries” value (D 4.0 (μg)) of the same substance?
A: The value was 1.31 Log10 CFU/peg.

Q: What about the “Log Reduction (Log R) vs. GC” value (D 8.0) of the same substance?
A: The value was 4.59.

Q: And the “Average Log10 CFU/peg recoveries” value (D 8.0 (μg))?
A: The value was 0.00 Log10 CFU/peg.

Q: And the “Log Reduction (Log R) vs. GC” value (D 16)?
A: The value was 4.59.

Q: And the “Average Log10 CFU/peg recoveries” value (D 16 (μg))?
A: Its value is 0.00 Log10 CFU/peg.

Q: And the “Log Reduction (Log R) vs. GC” value (D 32)?
A: The value was 4.59.

Q: And the “Average Log10 CFU/peg recoveries” value (D 32 (μg))?
A: Its value is 0.00 Log10 CFU/peg.
